Legend:
[1] = system: CTP:phosphocholine cytidylyltransferase (CCT); test: CCT assay in hippocampal neuron homogenates with substance added to the assay mixture; format: biochemical, rat; conditions: 0.5 mM DOPC/0.5 mM oleic acid/0.3 mM sphingolipid or lyso-sphingolipid; 8-day-old neurons
Procedure: (§1) Neurons from individual cover slips were washed twice with ice-cold phosphate-buffered saline, and cells removed by scraping into 300 μl of buffer containing 50 mM imidazole, 2 mM EDTA, 150 mM KCl, 6 mM ADP, 0.2 mM phenylmethylsulfonylfluoride, 1 μg/ml pepstatin and 1 μg/ml leupeptin. After brief sonication, an aliquot was removed for DNA determination and 100 μl was used for the CCT assay.
(§2) CCT was assayed as described (Weinhold P A and Feldman D A. 1992. Choline-phosphate cytidylyltransferase. Methods Enzymol. 209, 248-258), with some minor modifications. The assay was performed in a final volume of 200 μl containing 1.6 mM phosphorylcholine/0.25 μCi [^14C]methyl phosphorylcholine, 3 mM CTP, 12 mM magnesium acetate, and DOPC liposomes with or without oleic acid and GicCer or GalCer, as indicated in the figure legends. Liposomes were prepared by sonicating resuspended lipids in the assay buffer at room temperature for 3 min using a sonicator (Sonics & Materials Inc., Newtown, Conn.) fitted with a micro-tip probe set to 750 W output, using 25% of the maximal amplitude and with pulsations of 9.0 sec every 9.2 sec, which gave a translucent liposome preparation with no precipitates. The final concentration of DOPC and oleic acid in the liposomes was 500 μM each. The reaction was terminated after 25 min at 37° C. by addition of 200 μl of 150 mM phosphorylcholine in 10% trichloroacetic acid. CDP-choline was recovered by addition of 2 ml of 6% charcoal in water (w/v). After 30 min at room temperature the charcoal suspension was washed 4 times with water and centrifuged at 1,000 gav for 10 min. The aqueous supernatants were removed and CDP-choline was eluted from the charcoal with 3 washes of water/ethanol/28% NH4OH (116:188:11, v/v/v). Eluates were pooled and evaporated to dryness under N2. Phosphorylcholine and CDP-choline were added to the tubes and the samples separated by TLC using 0.9% NaCl/methanol/28% NE4OH (50:70:5, v/v/v) as the developing solvent. Metabolites were identified by iodine, and the CDP-choline spot was scraped into scintillation vials for scintillation counting.
CCT activity was assayed in homogenates prepared from 8-day-old normal rat hippocampal neurons as described herein above. The reaction mixture comprised 0.5 mM DOPC/0.5 mM oleic acid/0.3 mM sphingolipid or lyso-sphingolipid. CCT activity with each sphingolipid or lyso-sphingolipid was measured twice. Basal CCT activity differed by ˜20% between the two experiments; however, the extent of activation or inhibition of CT activity was similar for each sphingolipid and lyso-sphingolipid.

[2] = system: CTP:phosphocholine cytidylyltransferase (CCT); test: CCT assay in rat brain cortical homogenates with liposomes; format: biochemical
Procedure: as §2
When CCT was assayed in rat or mouse brain cortical homogenates (1 g tissue/12.5 ml of buffer), the homogenate was first centrifuged (200 gav, 20 min) to remove cell debris. The homogenate was diluted with assay buffer to give a final concentration of 200 μg protein/ml. CCT activity was also assayed using purified rat brain CCT (see below).

[3] = system: CTP:phosphocholine cytidylyltransferase (CCT); test: as above; format: biochemical; conditions: DOPC liposomes, 200 μM; for CCT activity: 8.9±1.0 without lipid
purified rat brain CCT = test: CCT assay with purified rat brain CCT and liposomes; format: biochemical
Procedure: as §2
Rat brain CCT was purified by a method similar to that described for rat liver (Weinhold and Feldman, supra; Weinhold P A Rounsifer M E and Feldman D A. 1986. The purification and characterization of CTP:phosphorylcholine cytidylyltransferase from rat liver. J Biol Chem 261:5104-5110). Rat brains (11 g) were isolated from 8-10-week old rats and homogenized in 51 ml of buffer A (50 mM Tris-HCl pH 7.4, 150 mM NaCl, 1 mM EDTA, 2 mM dithiothreitol, 0.025% (w/v) sodium azide, 1 mM phenylmethylsulfonylfluoride). Brain cytosol was prepared by collecting the supernatants obtained after two sequential centrifugation steps at 10,000 gav for 20 min, and 100,000 gav for 1 h. The protein concentration of the cytosol was adjusted to 6 mg/ml with buffer A, egg yolk PC/oleic acid liposomes were added, followed by acid precipitation. The precipitate was re-suspended in 54 ml of buffer A containing 20 mM n-octyl-β-D-glucopyranoside and 1 mM phenylmethylsulfonylfluoride for 30 min at room temperature. After centrifugation (10,000 gav, 20 min), the n-octyl-β-D-glucopyranoside extract was loaded onto a DEAE-sepharose CL-6B column that had been previously packed and equilibrated with 300 ml of buffer A. All elution procedures were performed using a flow rate of 40 ml/h. The column was successively washed with 100 ml of buffer A, 300 ml of a gradient of 150 mM to 300 mM NaCl in buffer B (50 mM Tris-HCl pH 7.4, 1 mM EDTA, 2 mM dithiothreitol, 0.025% (w/v) sodium azide), and 150 ml of buffer B containing 300 mM NaCl. CCT was eluted with 70 ml of buffer B containing 400 mM NaCl and 50 mM n-octyl-β-D-glucopyranoside.
The fractions containing CCT activity were pooled, diluted with 4 volumes of buffer A and loaded onto a HTP gel hydroxyapatite column (BioRad) that had previously been equilibrated with 200 ml of buffer A. Elutions were performed at flow rates of 20 ml/hour. […]

[4] = system: CTP:phosphocholine cytidylyltransferase (CCT); test: CCT assay in homogenates of treated hippocampal neurons; format: cell-based, rat; conditions: 50 μM PDMP
Procedure: as §1
CCT was assayed as described (Weinhold P A and Feldman D A. 1992. Choline-phosphate cytidylyltransferase. Methods Enzymol. 209, 248-258), with some minor modifications. The assay was performed in a final volume of 200 μl containing 1.6 mM phosphorylcholine/0.25 μCi [^14C]methyl phosphorylcholine, 3 mM CTP, 12 mM magnesium acetate, and DOPC liposomes with or without oleic acid and GicCer or GalCer, as indicated in the figure legends. Liposomes were prepared by sonicating resuspended lipids in the assay buffer at room temperature for 3 min using a sonicator (Sonics & Materials Inc., Newtown, Conn.) fitted with a micro-tip probe set to 750 W output, using 25% of the maximal amplitude and with pulsations of 9.0 sec every 9.2 sec, which gave a translucent liposome preparation with no precipitates. The final concentration of DOPC and oleic acid in the liposomes was 500 μM each. […]

rat hippocampal neurons = conditions: 50 μM PDMP; cited from earlier work
[5] = liposomes of DOPC and oleic acid

Compound: CCCCCCCCCCCCC/C=C/[C@@H](O)[C@@H](N)CO[C@@H]1O[C@H](CO)[C@@H](O)[C@H](O)[C@H]1O [glucosylsphingosine]
- effect on CCT activity [1]: No significant effect
- effect of exogenously-added lipid on CCT activity [2]: no elevation of activity

Compound: glucosylceramide [GlcCer]
- effect on CCT activity [1]: activated
- effect on CCT activity [2, 5]: increased CCT activity
- increase in the rate of CDP-choline synthesis [3]: > 2 fold
- activation of CCT at the lowest concentration (purified rat brain CCT; DOPC liposomes, 2.5 mole percent): significant activation
- maximal activation of CCT (purified rat brain CCT; DOPC liposomes, 10 mole percent): 3-4 fold
- effect on CCT activity (purified rat brain CCT; DOPC/oleic acid liposomes): small but significant increase

Compound: CCCCCCCCCC(=O)N[C@H](CN1CCOCC1)[C@H](O)c1ccccc1 [PDMP, D-threo-1-phenyl-2-decanoyl-amino-3-morpholino-1-propanol]
- CCT activity after treatment of neurons [4]: significant reduction
- rate of axonal growth (rat hippocampal neurons): reduction

Compound: CCCCCCCCCCCCC/C=C/[C@@H](O)[C@@H](N)CO[C@@H]1O[C@H](CO)[C@H](O)[C@H](O)[C@H]1O [galactosylsphingosine]
- effect on CCT activity [1]: No significant effect
- effect of exogenously-added lipid on CCT activity [2]: no elevation of activity

Compound: CCCCCCCCCCCCC/C=C/[C@@H](O)[C@@H](N)COP(=O)([O-])OCC[N+](C)(C)C [lysosphingomyelin]
- effect on CCT activity [1]: inhibited

Compound: CCCCCCCCCCCCC/C=C/[C@@H](O)[C@@H](N)CO [sphingosine]
- effect on CCT activity [1]: inhibited

Compound: CCCCCCCCCCCCC/C=C/[C@@H](O)[C@H](COC1OC(CO)C(O)C(O)C1O)NC(=O)CCCCCCC (some centres unmarked) [C8-GlcCer]
- CCT activity [3]: 25.9±4.4 nmol/min/mg of protein

Compound: CCCCCCCCCCCCCC=CC(O)C(COC1OC(CO)C(O)C(O)C1O)NC(=O)CCCCCCC (centres unmarked) [C8-GalCer]
- CCT activity [3]: 9.1±0.8 nmol/min/mg of protein

Compound: CCCCCCCC/C=C\CCCCCCCC(=O)O [oleic acid]
- CCT activity in DOPC/oleic acid liposomes versus DOPC liposomes alone (purified rat brain CCT; DOPC/oleic acid liposomes): ~10 fold

Compound: sphingomyelin [SM]
- effect on CCT activity [1]: inhibited
- effect of exogenously-added lipid on CCT activity [2]: did not increase CCT activity

Compound: CCCCCCCCCCCCC/C=C/[C@@H](O)C(N)CO[C@H]1O[C@H](CO)[C@@H](O[C@@H]2O[C@H](CO)[C@H](O)[C@H](O)[C@H]2O)[C@H](O)[C@@H]1O (some centres unmarked) [lactosylsphingosine]
- effect on CCT activity [1]: inhibited

Compound: ceramide
- effect on CCT activity [1]: inhibited
- effect of exogenously-added lipid on CCT activity [2]: did not increase CCT activity

Compound: lactosylceramide
- effect on CCT activity [1]: inhibited
- effect of exogenously-added lipid on CCT activity [2]: did not increase CCT activity

Compound: galactosylceramide [GalCer]
- effect on CCT activity [1]: no significant effect
- effect on CCT activity ([2]; DOPC liposomes): did not affect
- effect on CCT activity [2, 5]: had no effect
- effect on purified CCT (purified rat brain CCT; DOPC liposomes): no significant effect
- effect on CCT activity (purified rat brain CCT; DOPC/oleic acid liposomes): no significant effect

— patent publication US7429460B2, “Methods of screening for inhibitors of phospholipid synthesis related to glycolipid-storage diseases” (Yeda Research and Development Co., Ltd., priority 2003, dated 2008)
